Where two headings read alike, the source gives them in different places.
How the values were obtained:
Experiment in all cases: Kinase panel
Format in all cases: biochemical
AKT2 = AKT2 (Homo sapiens, UniProt P31751); conditions: AKT2, 1 µM; read-out: residual enzyme activity
Summary of the method: (§1)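 Kinase profiling used a full biochemical panel. Test compound concentration: 1 µM, single point. Output: calculated residual activity, with kinases at or under 40% reported.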

BLK = BLK (Homo sapiens, UniProt P51451); conditions: read-out: residual enzyme activity
Summary of the method: as §1

BRAF = BRAF (Homo sapiens, UniProt P15056); conditions: read-out: residual enzyme activity
Summary of the method: as §1

BRSK1 = BRSK1 (Homo sapiens, UniProt Q8TDC3); conditions: BRSK1, 1 µM; read-out: residual enzyme activity
Summary of the method: as §1

CAMK4 = CAMK4 (Homo sapiens, UniProt Q16566); conditions: CAMK4, 1 µM; read-out: residual enzyme activity
Summary of the method: as §1

CAMKK2 = CAMKK2 (Homo sapiens, UniProt Q96RR4); conditions: CAMKK2, 1 µM; read-out: residual enzyme activity
Summary of the method: as §1

CDK14/CYCLIN Y (PFTK1) = CDK14/CYCLIN Y (PFTK1) (Homo sapiens, UniProt O94921); conditions: read-out: residual enzyme activity
Summary of the method: as §1

CLK4 = CLK4 (Homo sapiens, UniProt Q9HAZ1); conditions: CLK4, 1 µM; read-out: residual enzyme activity
Summary of the method: as §1

CSK = CSK (Homo sapiens, UniProt P41240); conditions: read-out: residual enzyme activity
Summary of the method: as §1

CTK/MATK = CTK/MATK (Homo sapiens, UniProt P42679); conditions: read-out: residual enzyme activity
Summary of the method: as §1

DYRK1/DYRK1A = DYRK1/DYRK1A (Homo sapiens, UniProt Q13627); conditions: read-out: residual enzyme activity
Summary of the method: as §1

DYRK1B = DYRK1B (Homo sapiens, UniProt Q9Y463); conditions: read-out: residual enzyme activity
Summary of the method: as §1

EPHA2 = EPHA2 (Homo sapiens, UniProt P29317); conditions: EPHA2, 1 µM; read-out: residual enzyme activity
Summary of the method: as §1

FGFR4 = FGFR4 (Homo sapiens, UniProt P22455); conditions: FGFR4, 1 µM; read-out: residual enzyme activity
Summary of the method: as §1

FLT4/VEGFR3 = FLT4/VEGFR3 (Homo sapiens, UniProt P35916); conditions: FLT4/VEGFR3, 1 µM; read-out: residual enzyme activity
Summary of the method: as §1

GLK/MAP4K3 = GLK/MAP4K3 (Homo sapiens, UniProt Q8IVH8); conditions: GLK/MAP4K3, 1 µM; read-out: residual enzyme activity
Summary of the method: as §1

LCK = LCK (Homo sapiens, UniProt P06239); conditions: read-out: residual enzyme activity
Summary of the method: as §1

MEK5 = MEK5 (Homo sapiens, UniProt Q13163); conditions: MEK5, 1 µM; read-out: residual enzyme activity
Summary of the method: as §1

MINK/MINK1 = MINK/MINK1 (Homo sapiens, UniProt Q8N4C8); conditions: MINK/MINK1, 1 µM; read-out: residual enzyme activity
Summary of the method: as §1

MRCKA/CDC42BPA = MRCKA/CDC42BPA (Homo sapiens, UniProt Q5VT25); conditions: read-out: residual enzyme activity
Summary of the method: as §1

MSK2/RPS6KA4 = MSK2/RPS6KA4 (Homo sapiens, UniProt O75676); conditions: MSK2/RPS6KA4, 1 µM; read-out: residual enzyme activity
Summary of the method: as §1

MST1/STK4 = MST1/STK4 (Homo sapiens, UniProt Q13043); conditions: MST1/STK4, 1 µM; read-out: residual enzyme activity
Summary of the method: as §1

OSR1/OXSR1 = OSR1/OXSR1 (Homo sapiens, UniProt O95747); conditions: OSR1/OXSR1, 1 µM; read-out: residual enzyme activity
Summary of the method: as §1

P38B/MAPK11 = P38B/MAPK11 (Homo sapiens, UniProt Q15759); conditions: read-out: residual enzyme activity
Summary of the method: as §1

PKCB2 = PKCB2 (Homo sapiens, UniProt P05771); conditions: PKCb2, 1 µM; read-out: residual enzyme activity
Summary of the method: as §1

PLK1 = PLK1 (Homo sapiens, UniProt P53350); conditions: PLK1, 1 µM; read-out: residual enzyme activity
Summary of the method: as §1

RET = RET (Homo sapiens, UniProt P07949); conditions: read-out: residual enzyme activity
Summary of the method: as §1

RON/MSTIR = RON/MSTIR (Homo sapiens, UniProt Q04912); conditions: read-out: residual enzyme activity
Summary of the method: as §1

STK32B/YANK2 = STK32B/YANK2 (Homo sapiens, UniProt Q9NY57); conditions: STK32B/YANK2, 1 µM; read-out: residual enzyme activity
Summary of the method: as §1

TLK2 = TLK2 (Homo sapiens, UniProt Q86UE8); conditions: TLK2, 1 µM; read-out: residual enzyme activity
Summary of the method: as §1

TNK1 = TNK1 (Homo sapiens, UniProt Q13470); conditions: TNK1, 1 µM; read-out: residual enzyme activity
Summary of the method: as §1

TTBK2 = TTBK2 (Homo sapiens, UniProt Q6IQ55); conditions: TTBK2, 1 µM; read-out: residual enzyme activity
Summary of the method: as §1

TYK1/LTK = TYK1/LTK (Homo sapiens, UniProt P29376); conditions: read-out: residual enzyme activity
Summary of the method: as §1

WNK1 = WNK1 (Homo sapiens, UniProt Q9H4A3); conditions: WNK1, 1 µM; read-out: residual enzyme activity
Summary of the method: as §1

CAMK4, sequence (Q16566 whole entry, species assumed): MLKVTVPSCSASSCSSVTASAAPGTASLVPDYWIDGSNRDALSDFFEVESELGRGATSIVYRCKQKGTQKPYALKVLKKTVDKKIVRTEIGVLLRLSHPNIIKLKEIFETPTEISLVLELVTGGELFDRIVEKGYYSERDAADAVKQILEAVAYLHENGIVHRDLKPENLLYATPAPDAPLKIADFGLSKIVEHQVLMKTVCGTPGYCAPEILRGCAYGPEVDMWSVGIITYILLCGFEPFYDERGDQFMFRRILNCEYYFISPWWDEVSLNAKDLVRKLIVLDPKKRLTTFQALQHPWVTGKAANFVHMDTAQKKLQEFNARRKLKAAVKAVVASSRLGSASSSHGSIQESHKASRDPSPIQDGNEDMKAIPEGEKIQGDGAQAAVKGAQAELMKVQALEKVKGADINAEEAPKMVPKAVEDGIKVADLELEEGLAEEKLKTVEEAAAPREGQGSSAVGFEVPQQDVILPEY
WNK1, sequence (Q9H4A3 whole entry, species assumed): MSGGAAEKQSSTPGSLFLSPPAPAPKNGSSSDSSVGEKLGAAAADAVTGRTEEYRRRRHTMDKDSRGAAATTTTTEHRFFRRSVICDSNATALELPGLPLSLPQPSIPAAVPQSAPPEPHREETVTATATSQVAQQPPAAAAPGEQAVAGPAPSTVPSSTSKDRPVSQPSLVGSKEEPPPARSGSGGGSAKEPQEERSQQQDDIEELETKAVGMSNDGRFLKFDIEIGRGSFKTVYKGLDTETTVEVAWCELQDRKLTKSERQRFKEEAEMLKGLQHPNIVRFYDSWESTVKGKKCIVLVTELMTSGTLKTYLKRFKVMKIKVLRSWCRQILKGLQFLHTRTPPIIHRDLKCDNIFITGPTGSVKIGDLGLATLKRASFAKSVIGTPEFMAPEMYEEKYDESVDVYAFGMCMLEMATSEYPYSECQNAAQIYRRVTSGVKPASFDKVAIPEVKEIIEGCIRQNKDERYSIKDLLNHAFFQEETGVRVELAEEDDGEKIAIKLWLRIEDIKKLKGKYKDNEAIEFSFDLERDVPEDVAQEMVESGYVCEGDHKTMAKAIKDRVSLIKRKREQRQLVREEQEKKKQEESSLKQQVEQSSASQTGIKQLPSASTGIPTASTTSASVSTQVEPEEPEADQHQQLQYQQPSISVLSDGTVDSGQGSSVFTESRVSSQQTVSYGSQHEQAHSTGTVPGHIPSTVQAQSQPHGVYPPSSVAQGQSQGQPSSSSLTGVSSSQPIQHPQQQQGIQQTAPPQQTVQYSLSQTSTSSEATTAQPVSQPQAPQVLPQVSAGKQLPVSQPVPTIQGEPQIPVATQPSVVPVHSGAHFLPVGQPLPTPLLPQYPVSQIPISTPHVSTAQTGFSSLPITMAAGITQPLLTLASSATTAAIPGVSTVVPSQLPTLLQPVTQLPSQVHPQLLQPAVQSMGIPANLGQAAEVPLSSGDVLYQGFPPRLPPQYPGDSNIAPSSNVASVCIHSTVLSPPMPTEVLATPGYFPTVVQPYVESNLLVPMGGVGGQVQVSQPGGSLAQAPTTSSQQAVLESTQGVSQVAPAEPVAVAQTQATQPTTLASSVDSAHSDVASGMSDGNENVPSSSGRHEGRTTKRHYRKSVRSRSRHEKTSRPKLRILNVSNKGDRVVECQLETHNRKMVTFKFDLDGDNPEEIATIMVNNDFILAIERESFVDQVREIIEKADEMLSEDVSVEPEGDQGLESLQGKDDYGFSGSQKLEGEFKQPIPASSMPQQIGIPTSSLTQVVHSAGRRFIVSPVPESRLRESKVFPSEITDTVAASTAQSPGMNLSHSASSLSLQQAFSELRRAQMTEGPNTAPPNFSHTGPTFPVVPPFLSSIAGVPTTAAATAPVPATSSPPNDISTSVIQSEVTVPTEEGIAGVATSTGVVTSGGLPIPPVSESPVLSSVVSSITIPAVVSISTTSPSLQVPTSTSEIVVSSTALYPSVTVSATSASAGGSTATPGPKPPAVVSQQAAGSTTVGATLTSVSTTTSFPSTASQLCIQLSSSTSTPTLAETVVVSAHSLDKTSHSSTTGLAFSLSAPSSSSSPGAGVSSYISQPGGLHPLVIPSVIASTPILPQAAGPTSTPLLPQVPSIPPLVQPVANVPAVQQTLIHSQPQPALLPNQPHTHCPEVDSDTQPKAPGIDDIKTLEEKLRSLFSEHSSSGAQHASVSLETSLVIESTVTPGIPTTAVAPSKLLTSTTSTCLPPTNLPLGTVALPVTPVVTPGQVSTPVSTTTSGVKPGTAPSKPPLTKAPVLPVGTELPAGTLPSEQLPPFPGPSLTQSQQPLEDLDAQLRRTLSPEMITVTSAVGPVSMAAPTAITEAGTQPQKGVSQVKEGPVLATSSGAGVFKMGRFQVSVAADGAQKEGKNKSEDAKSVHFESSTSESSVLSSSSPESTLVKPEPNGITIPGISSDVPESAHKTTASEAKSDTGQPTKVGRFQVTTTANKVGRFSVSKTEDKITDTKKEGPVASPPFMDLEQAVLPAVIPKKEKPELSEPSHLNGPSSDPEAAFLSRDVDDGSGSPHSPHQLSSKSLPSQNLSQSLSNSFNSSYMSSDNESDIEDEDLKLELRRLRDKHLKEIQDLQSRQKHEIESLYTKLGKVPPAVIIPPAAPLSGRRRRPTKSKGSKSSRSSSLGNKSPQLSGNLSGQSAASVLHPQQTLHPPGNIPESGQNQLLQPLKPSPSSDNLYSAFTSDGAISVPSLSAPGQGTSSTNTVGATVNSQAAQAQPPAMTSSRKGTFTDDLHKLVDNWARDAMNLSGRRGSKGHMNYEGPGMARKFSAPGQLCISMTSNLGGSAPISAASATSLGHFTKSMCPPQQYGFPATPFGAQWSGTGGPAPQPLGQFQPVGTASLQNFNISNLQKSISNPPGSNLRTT
BRAF, sequence (P15056 whole entry, species assumed): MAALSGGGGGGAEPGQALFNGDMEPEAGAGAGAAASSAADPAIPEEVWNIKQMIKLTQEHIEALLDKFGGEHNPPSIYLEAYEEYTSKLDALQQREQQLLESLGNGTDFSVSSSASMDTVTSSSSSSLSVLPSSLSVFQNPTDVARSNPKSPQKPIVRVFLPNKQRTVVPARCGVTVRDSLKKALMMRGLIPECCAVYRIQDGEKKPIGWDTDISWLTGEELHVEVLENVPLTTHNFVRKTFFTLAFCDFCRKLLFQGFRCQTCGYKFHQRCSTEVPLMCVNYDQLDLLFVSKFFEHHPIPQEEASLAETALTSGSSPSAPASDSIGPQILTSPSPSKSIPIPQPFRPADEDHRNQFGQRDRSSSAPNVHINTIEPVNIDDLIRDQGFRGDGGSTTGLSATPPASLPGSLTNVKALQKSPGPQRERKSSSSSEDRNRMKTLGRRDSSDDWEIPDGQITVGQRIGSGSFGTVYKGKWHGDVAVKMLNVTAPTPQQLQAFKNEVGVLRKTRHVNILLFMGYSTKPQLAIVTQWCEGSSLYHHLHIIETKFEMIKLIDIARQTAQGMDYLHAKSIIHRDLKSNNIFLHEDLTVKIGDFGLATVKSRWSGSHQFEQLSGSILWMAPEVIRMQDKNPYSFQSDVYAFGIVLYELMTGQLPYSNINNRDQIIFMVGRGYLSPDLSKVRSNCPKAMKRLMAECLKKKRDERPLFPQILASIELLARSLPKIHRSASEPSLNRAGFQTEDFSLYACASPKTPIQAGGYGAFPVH
PLK1, sequence (P53350 whole entry, species assumed): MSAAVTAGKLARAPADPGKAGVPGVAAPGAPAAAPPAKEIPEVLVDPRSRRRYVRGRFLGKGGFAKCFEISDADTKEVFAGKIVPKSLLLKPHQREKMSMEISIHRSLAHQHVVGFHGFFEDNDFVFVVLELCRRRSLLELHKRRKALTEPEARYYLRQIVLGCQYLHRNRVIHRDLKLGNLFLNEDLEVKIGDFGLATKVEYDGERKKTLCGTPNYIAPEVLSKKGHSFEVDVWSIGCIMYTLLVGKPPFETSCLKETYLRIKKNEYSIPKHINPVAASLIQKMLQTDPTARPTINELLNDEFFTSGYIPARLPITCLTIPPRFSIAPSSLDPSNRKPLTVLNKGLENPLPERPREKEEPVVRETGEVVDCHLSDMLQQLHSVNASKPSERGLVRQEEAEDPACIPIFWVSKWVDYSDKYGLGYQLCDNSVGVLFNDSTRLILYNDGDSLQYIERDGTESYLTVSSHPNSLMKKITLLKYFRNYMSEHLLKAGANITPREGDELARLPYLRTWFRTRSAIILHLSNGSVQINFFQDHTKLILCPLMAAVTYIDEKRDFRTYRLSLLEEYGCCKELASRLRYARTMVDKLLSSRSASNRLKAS
BLK, sequence (P51451 whole entry): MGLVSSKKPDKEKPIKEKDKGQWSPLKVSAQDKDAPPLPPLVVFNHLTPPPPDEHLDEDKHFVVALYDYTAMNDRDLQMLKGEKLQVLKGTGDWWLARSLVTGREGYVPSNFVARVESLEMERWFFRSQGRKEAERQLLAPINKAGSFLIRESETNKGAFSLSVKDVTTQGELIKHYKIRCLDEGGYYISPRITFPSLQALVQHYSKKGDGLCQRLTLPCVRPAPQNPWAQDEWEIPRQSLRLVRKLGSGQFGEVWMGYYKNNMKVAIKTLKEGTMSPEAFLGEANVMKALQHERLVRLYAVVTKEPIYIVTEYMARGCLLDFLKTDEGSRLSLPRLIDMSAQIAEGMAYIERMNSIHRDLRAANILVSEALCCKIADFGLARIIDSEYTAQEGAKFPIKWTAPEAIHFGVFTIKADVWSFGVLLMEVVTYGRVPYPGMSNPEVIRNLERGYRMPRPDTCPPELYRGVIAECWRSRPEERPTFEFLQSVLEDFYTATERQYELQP
P38B/MAPK11, sequence (Q15759 whole entry): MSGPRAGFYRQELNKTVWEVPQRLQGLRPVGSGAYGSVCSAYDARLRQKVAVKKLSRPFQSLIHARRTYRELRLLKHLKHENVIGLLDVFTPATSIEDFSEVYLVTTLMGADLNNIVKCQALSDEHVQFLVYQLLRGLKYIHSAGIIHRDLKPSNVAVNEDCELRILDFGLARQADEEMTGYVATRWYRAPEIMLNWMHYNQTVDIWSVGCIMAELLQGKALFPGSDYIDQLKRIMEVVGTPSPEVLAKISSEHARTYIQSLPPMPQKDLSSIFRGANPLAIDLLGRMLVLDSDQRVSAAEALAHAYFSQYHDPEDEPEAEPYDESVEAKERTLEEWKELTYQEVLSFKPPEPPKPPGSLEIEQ

Q: Which results are given for Cc1ccc(Nc2ncc3c(n2)C2(CC2)C(=O)N(c2cc(NC(=O)c4cccc(C(F)(F)F)c4)ccc2C)C3)cn1 [Compound 51, N-(4-methyl-3-(2'-((6-methylpyridin-3-yl)amino)-7'-oxo-5'H-spiro[cyclopropane-1,8'-pyrido[4,3-d]pyrimidine]-6'(7'H)-yl)phenyl)-3-(trifluoromethyl)benzamide]?
A: remaining activity at 1 µM (AKT2): > 40%; remaining activity at 1 µM (BLK): ≤ 40%; remaining activity at 1 µM (BRAF): ≤ 40%; remaining activity at 1 µM (BRSK1): > 40%; remaining activity at 1 µM (CAMK4): > 40%; remaining activity at 1 µM (CAMKK2): > 40%; remaining activity at 1 µM (CDK14/CYCLIN Y (PFTK1)): > 40%; remaining activity at 1 µM (CLK4): > 40%; remaining activity at 1 µM (CSK): ≤ 40%; remaining activity at 1 µM (CTK/MATK): > 40%; remaining activity at 1 µM (DYRK1/DYRK1A): > 40%; remaining activity at 1 µM (DYRK1B): > 40%; remaining activity at 1 µM (EPHA2): ≤ 40%; remaining activity at 1 µM (FGFR4): ≤ 40%; remaining activity at 1 µM (FLT4/VEGFR3): ≤ 40%; remaining activity at 1 µM (GLK/MAP4K3): ≤ 40%; remaining activity at 1 µM (LCK): ≤ 40%; remaining activity at 1 µM (MEK5): ≤ 40%; remaining activity at 1 µM (MINK/MINK1): ≤ 40%; remaining activity at 1 µM (MRCKA/CDC42BPA): > 40%; remaining activity at 1 µM (MSK2/RPS6KA4): > 40%; remaining activity at 1 µM (MST1/STK4): > 40%; remaining activity at 1 µM (OSR1/OXSR1): > 40%; remaining activity at 1 µM (P38B/MAPK11; P38b/MAPK11, 1 µM): ≤ 40%; remaining activity at 1 µM (PKCB2): > 40%; remaining activity at 1 µM (PLK1): > 40%; remaining activity at 1 µM (RET): ≤ 40%; remaining activity at 1 µM (RON/MSTIR): > 40%; remaining activity at 1 µM (STK32B/YANK2): ≤ 40%; remaining activity at 1 µM (TLK2): > 40%; remaining activity at 1 µM (TNK1): ≤ 40%; remaining activity at 1 µM (TTBK2): > 40%; remaining activity at 1 µM (TYK1/LTK): > 40%; remaining activity at 1 µM (WNK1): > 40%

Q: How did the remaining activity at 1 µM (AKT2) turn out when Cc1cn(-c2cc(C(=O)Nc3ccc(C)c(N4Cc5cnc(NC6CC6)nc5C5(CC5)C4=O)c3)cc(C(F)(F)F)c2)cn1 [Compound 8, N-(3-(2'-(cyclopropylamino)-7'-oxo-5'H-spiro[cyclopropane-1,8'-pyrido[4,3-d]pyrimidine]-6'(7'H)-yl)-4-methylphenyl)-3-(4-methyl-1H-imidazol-1-yl)-5-(trifluoromethyl)benzamide] was run?
A: > 40%

Q: What about the remaining activity at 1 µM (BLK) of the same molecule?
A: ≤ 40%

Q: And the remaining activity at 1 µM (BRAF)?
A: ≤ 40%

Q: And the remaining activity at 1 µM (BRSK1)?
A: > 40%

Q: What about the remaining activity at 1 µM (CAMK4) of the same molecule?
A: > 40%

Q: What about the remaining activity at 1 µM (CAMKK2) of the same molecule?
A: > 40%

Q: And the remaining activity at 1 µM (CDK14/CYCLIN Y (PFTK1))?
A: > 40%

Q: And the remaining activity at 1 µM (CLK4)?
A: > 40%

Q: What about the remaining activity at 1 µM (CSK) of the same molecule?
A: ≤ 40%

Q: What about the remaining activity at 1 µM (CTK/MATK) of the same molecule?
A: > 40%

Q: What about the remaining activity at 1 µM (DYRK1/DYRK1A) of the same molecule?
A: > 40%

Q: What about the remaining activity at 1 µM (DYRK1B) of the same molecule?
A: > 40%

Q: And the remaining activity at 1 µM (EPHA2)?
A: ≤ 40%

Q: And the remaining activity at 1 µM (FGFR4)?
A: ≤ 40%

Q: What about the remaining activity at 1 µM (FLT4/VEGFR3) of the same molecule?
A: ≤ 40%

Q: What about the remaining activity at 1 µM (GLK/MAP4K3) of the same molecule?
A: ≤ 40%

Q: What about the remaining activity at 1 µM (LCK) of the same molecule?
A: ≤ 40%

Q: And the remaining activity at 1 µM (MEK5)?
A: ≤ 40%

Q: What about the remaining activity at 1 µM (MINK/MINK1) of the same molecule?
A: ≤ 40%

Q: And the remaining activity at 1 µM (MRCKA/CDC42BPA)?
A: > 40%

Q: And the remaining activity at 1 µM (MSK2/RPS6KA4)?
A: > 40%

Q: And the remaining activity at 1 µM (MST1/STK4)?
A: > 40%

Q: What about the remaining activity at 1 µM (OSR1/OXSR1) of the same molecule?
A: > 40%

Q: And the remaining activity at 1 µM (P38B/MAPK11; P38B/MAPK11, 1 µM)?
A: ≤ 40%

Q: What about the remaining activity at 1 µM (PKCB2) of the same molecule?
A: > 40%

Q: And the remaining activity at 1 µM (PLK1)?
A: > 40%

Q: And the remaining activity at 1 µM (RET)?
A: ≤ 40%

Q: And the remaining activity at 1 µM (RON/MSTIR)?
A: > 40%

Q: And the remaining activity at 1 µM (STK32B/YANK2)?
A: ≤ 40%

Q: What about the remaining activity at 1 µM (TLK2) of the same molecule?
A: > 40%

Q: What about the remaining activity at 1 µM (TNK1) of the same molecule?
A: ≤ 40%

Q: And the remaining activity at 1 µM (TTBK2)?
A: > 40%

Q: What about the remaining activity at 1 µM (TYK1/LTK) of the same molecule?
A: ≤ 40%

Q: What about the remaining activity at 1 µM (WNK1) of the same molecule?
A: > 40%
